Source: patent US20260166039A1 (SCHRÖDINGER, INC., priority 2022, published 2026)
Read-outs that look alike come from different tables or passages of the source.

Tests used:
Wee1 kinase domain = target: T1, Wee1 kinase domain (Homo sapiens, UniProt P30291); assay: Wee1 Kinase Biochemical Assay (ADP-Glo); details: 15 uM ATP
T1 construct: Wee1 kinase domain was purchased from Carna (catalog #05-177); purchased Carna 05-177
Procedure, shortened: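 ADP-Glo detection of ADP produced after 4 h at 25° C by 1 nM Wee1 kinase domain on 2 ng/mL poly(Lys,Tyr 4:1) with 15 uM ATP. Buffer: 40 mM Tris-HCl, 20 mM MgCl2, 0.1 mg/mL BSA, 2 mM DTT. Inhibition is relative to DMSO (high) and saturating Wee1 inhibitor (low) controls.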

[1] = test system: phosphorylation of Cdc2 Y15 (Wee1 substrate) in A427 cells; assay: Phosphorylated Cdc2 MSD Electrochemiluminescence Assay; format: cell-based; details: Homo sapiens
Procedure: Phosphorylated Cdc2 MSD Electrochemiluminescence Assay
The effect of Wee1 inhibitors on cellular phosphorylation of the Wee1 substrate Cdc2 was determined using the following protocol:
A total of 40,000 A427 cells in 100 uL culture medium (1640 medium+10% Fetal bovine serum+1% Penicillin-Streptomycin) were plated in 96-well cell culture plates. 3-fold serial dilutions of test compounds were prepared in completed PBS at 25× final concentration. After 20 hours, the plates were removed and 4 μL of each were added to the cells and incubated with shaking for 30 minutes at 37° C., 5% CO2. Each concentration was tested in duplicate. After a total 6 hours incubation, plates were removed and centrifuged for 5 minutes and 100 uL of supernatant from each well was removed. Cells were washed with 200 μL PBS and lysed with 50 μL MSD lysis buffer (Meso Scale Diagnostics) supplied with 1× complete ULTRA cocktail inhibitor (Roche).
To detect phosphorylation of Cdc2 Y15, 30 μL of capture antibody solution (CST catalog #9116S 1:200) was added into each well of the MSD plate (MSD catalog #L15XB-6), sealed and incubated at 4° C. with shaking (450 rpm) overnight. The antibody solution was removed, wells blocked with BSA solution and plates washed three times with PBST, followed by addition of 30 μl of cell lysate per well. After 2 hours of incubation, plates were washed three times with PBST. 30 μL of 1× detection antibody solution (CST catalog #4539S 1:200) was then added to each well and incubated for 1 hour. Plates were washed three times with PBST and 30 μL of 1× secondary antibody solution (MSD, catalog #:R32AB-1, 1:5000) was added to each well and incubated for 1 hour. Plates were washed three times with PBST and 150 μL of 1× Read Buffer T (MSD, catalog #R92TC-1) was added to each well of the MSD plate. The electrochemiluminescence signal was measured on a MESO SECTOR S600 plate reader. The percentage of remaining phosphorylated Cdc2 signal was calculated following the equation below.
[formula] • HC (high control): Cells treated with DMSO • Cpds: Cells treated with test compounds • LC (low control): Cells treated with positive control Wee1 inhibitor

[2] = class symbols, 1 nM Wee1 enzyme, 4 hours at 25° C.
[3] = A-427, class symbols, read-out: A427 pCDC2 MSD IC50

T1 sequence (P30291 299-569 limits assumed): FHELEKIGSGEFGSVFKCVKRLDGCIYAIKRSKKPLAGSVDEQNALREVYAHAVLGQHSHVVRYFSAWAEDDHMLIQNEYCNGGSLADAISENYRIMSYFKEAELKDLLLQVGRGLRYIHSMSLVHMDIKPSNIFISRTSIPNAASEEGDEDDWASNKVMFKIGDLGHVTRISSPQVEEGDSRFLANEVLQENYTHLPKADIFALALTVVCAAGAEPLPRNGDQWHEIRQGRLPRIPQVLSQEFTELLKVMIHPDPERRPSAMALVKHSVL

For CN1CC(c2ccc(Nc3ncc4c(n3)N(c3cccc(N=S(C)(C)=O)n3)[C@@H]3CC(C)(C)OC[C@]43C)cc2)C1 (single isomer, unassigned) [Example 165], the IC50 (Wee1 kinase domain; Wee1 kinase domain, ADP-Glo) was less than 0.01 µM and the IC50 ([1]; A-427, pCDC2 MSD) was less than 0.1 µM.
CNCc1cccc(N2c3nc(Nc4ccc([C@@H]5CNC(=O)C5)cc4)ncc3[C@@]3(C)COC(C)(C)C[C@@H]23)n1 (single isomer, unassigned) [Example 63] showed an IC50 (Wee1 kinase domain; Wee1 kinase domain, ADP-Glo) of less than 0.01 µM and an IC50 ([1]; A-427, pCDC2 MSD) of 0.1 to 1 µM.
CNCc1cccc(N2c3nc(Nc4ccc(-c5cnn(C)c5)nc4)ncc3[C@@]3(C)COC(C)(C)C[C@@H]23)n1 (single isomer, unassigned) [Example 460] was tested, and the IC50 (Wee1 kinase domain; [2]) was less than 0.01 µM and the IC50 [1, 3] was 0.1 to 1 µM.
In the case of CN1C[C@H]2C[C@@H]1CN2c1ccc(Nc2ncc3c(n2)N(c2cccc(C4(O)CC4)n2)C2CC(C)(C)OCC32C)cc1 (stereo in doubt) [Example 646, 1-(6-((4bR,8aR)-4b,7,7-trimethyl-2-((4-((1R,4R)-5-methyl-2,5-diazabicyclo[2.2.1]heptan-2-yl)phenyl)amino)-4b,7,8,8a-tetrahydropyrano[3′,4′:4,5]pyrrolo[2,3-d]pyrimidin-9(5H)-yl)pyridin-2-yl)cyclopropan-1-ol], the IC50 (Wee1 kinase domain; [2]) is reported as less than 0.01 µM and the IC50 [1, 3] is reported as 0.1 to 1 µM.
CN1Cc2cc(Nc3ncc4c(n3)N(c3cccc(N=S(C)(C)=O)n3)[C@@H]3CC(C)(C)OC[C@]43C)cnc2C1 (single isomer, unassigned) [Example 188] showed an IC50 (Wee1 kinase domain; Wee1 kinase domain, ADP-Glo) of less than 0.01 µM and an IC50 ([1]; A-427, pCDC2 MSD) of less than 0.1 µM.
Compound CNC1(c2cccc(N3c4nc(Nc5ccc(C6CCN(C)CC6)c(C)c5)ncc4[C@@]4(C)COC(C)(C)C[C@@H]34)n2)CC1 (single isomer, unassigned) [Example 575] has an IC50 (Wee1 kinase domain; [2]) of less than 0.01 µM and an IC50 [1, 3] of less than 0.1 µM.
Compound CN[C@@H](C)c1cccc(N2c3nc(Nc4ccc(N5C[C@H]6C[C@@H]5CO6)cc4)ncc3[C@]3(C)COC(C)(C)C[C@H]23)n1 (single isomer, unassigned) [Example 579] has an IC50 (Wee1 kinase domain; [2]) of less than 0.01 µM and an IC50 [1, 3] of 0.1 to 1 µM.
For CNCc1cccc(N2c3nc(Nc4ccc(N5CCC(F)(F)C5)cc4)ncc3[C@@]3(C)COC(C)(C)C[C@@H]23)n1 (single isomer, unassigned) [Example 22], the IC50 (Wee1 kinase domain; Wee1 kinase domain, ADP-Glo) was less than 0.01 µM and the IC50 ([1]; A-427, pCDC2 MSD) was 0.1 to 1 µM.
Compound CN1CCC(c2ccc(Nc3ncc4c(n3)N(c3cccc(N=S(C)(C)=O)n3)[C@H]3CC(C)(C)OC[C@@]43C)cc2)CC1 (single isomer, unassigned) [Example 112] has an IC50 (Wee1 kinase domain; Wee1 kinase domain, ADP-Glo) of less than 0.01 µM and an IC50 ([1]; A-427, pCDC2 MSD) of less than 0.1 µM.
CN1Cc2cc(Nc3ncc4c(n3)N(c3cccc(N=S(C)(C)=O)n3)[C@@H]3CC(C)(C)OC[C@]43C)ccc2C(C)(C)C1 (single isomer, unassigned) [Example 135] was tested, and the IC50 (Wee1 kinase domain; Wee1 kinase domain, ADP-Glo) was less than 0.01 µM and the IC50 ([1]; A-427, pCDC2 MSD) was less than 0.1 µM.
CN1CCC[C@@H](n2cc(Nc3ncc4c(n3)N(c3cccc(N=S(C)(C)=O)n3)[C@@H]3CC(C)(C)OC[C@]43C)cn2)C1 (single isomer, unassigned) [Example 201] gave an IC50 (Wee1 kinase domain; Wee1 kinase domain, ADP-Glo) of less than 0.01 µM and an IC50 ([1]; A-427, pCDC2 MSD) of 0.1 to 1 µM.
With CC1(C)C[C@H]2N(c3cccc(P(C)(C)=O)n3)c3nc(Nc4ccn(C5CCOCC5)c(=O)c4)ncc3[C@@]2(C)CO1 (single isomer, unassigned) [Example 780] the IC50 (Wee1 kinase domain; [2]) was less than 0.01 µM and the IC50 [1, 3] was less than 0.1 µM.
CC1(C)C[C@H]2N(c3cccc(N=S(C)(C)=O)n3)c3nc(NC(=O)[C@H]4C[C@@H]4C4CCOCC4)ncc3[C@@]2(C)CO1 (single isomer, unassigned) [Example 411] was tested, and the IC50 (Wee1 kinase domain; [2]) was less than 0.01 µM and the IC50 [1, 3] was 1 to 10 µM.
Work on CN1CC[C@@H](Oc2ccc(Nc3ncc4c(n3)N(c3cccc(N=S(C)(C)=O)n3)[C@@H]3CC(C)(C)OC[C@]43C)cc2)C1 (single isomer, unassigned) [Example 159] yielded an IC50 (Wee1 kinase domain; Wee1 kinase domain, ADP-Glo) of less than 0.01 µM and an IC50 ([1]; A-427, pCDC2 MSD) of less than 0.1 µM.
With CN1CCC(n2cc(Nc3ncc4c(n3)N(c3cccc(N=S(C)(C)=O)n3)[C@@H]3CC(C)(C)OC[C@]43C)cn2)C1 (stereo partly drawn) [Example 196, dimethyl((6-((4bR,8aR)-4b,7,7-trimethyl-2-((1-((R)-1-methylpyrrolidin-3-yl)-1H-pyrazol-4-yl)amino)-4b,7,8,8a-tetrahydropyrano[3′,4′:4,5]pyrrolo[2,3-d]pyrimidin-9(5H)-yl)pyridin-2-yl)imino)-16-sulfanone] the IC50 (Wee1 kinase domain; Wee1 kinase domain, ADP-Glo) was less than 0.01 µM and the IC50 ([1]; A-427, pCDC2 MSD) was 0.1 to 1 µM.
Work on CN1CCC[C@H]1c1cccc(N2c3nc(Nc4ccn(C5CCOCC5)c(=O)c4)ncc3[C@@]3(C)COC(C)(C)C[C@@H]23)n1 (single isomer, unassigned) [Example 393] yielded an IC50 (Wee1 kinase domain; Wee1 kinase domain, ADP-Glo) of less than 0.01 µM and an IC50 ([1]; A-427, pCDC2 MSD) of 1 to 10 µM.
In the case of CNC1(c2cccc(N3c4nc(Nc5ccc(N6CCOCC6)cc5)ncc4[C@@]4(C)COC(C)(C)C[C@@H]34)n2)CC1 (single isomer, unassigned) [Example 543], the IC50 (Wee1 kinase domain; [2]) is reported as less than 0.01 µM and the IC50 [1, 3] is reported as 0.1 to 1 µM.
With CC1(C)C[C@H]2N(c3cccc([C@H]4COCCN4)n3)c3nc(Nc4ccc(N5CCOCC5)cc4)ncc3[C@@]2(C)CO1 [Example 731, (4bR,8aR)-4b,7,7-trimethyl-9-(6-((S)-morpholin-3-yl)pyridin-2-yl)-N-(4-morpholinophenyl)-4b,5,7,8,8a,9-hexahydropyrano[3′,4′:4,5]pyrrolo[2,3-d]pyrimidin-2-amine] the IC50 (Wee1 kinase domain; [2]) was less than 0.01 µM and the IC50 [1, 3] was 0.1 to 1 µM.
CC1(C)C[C@@H]2N(c3cccc(N=S(C)(C)=O)n3)c3nc(Nc4ccc([C@]5(C)CCNC5)cc4)ncc3[C@]2(C)CO1 (single isomer, unassigned) [Example 173] was tested, and the IC50 (Wee1 kinase domain; Wee1 kinase domain, ADP-Glo) was less than 0.01 µM and the IC50 ([1]; A-427, pCDC2 MSD) was less than 0.1 µM.
Work on CN1CCN(c2ccc(Nc3ncc4c(n3)N(c3nccs3)[C@@H]3CC(C)(C)OC[C@]43C)cc2)CC1 (single isomer, unassigned) [Example 726] yielded an IC50 (Wee1 kinase domain; [2]) of less than 0.01 µM and an IC50 [1, 3] of 0.1 to 1 µM.
Work on CN[C@@H](c1cccc(N2c3nc(Nc4ccc(N5CCN(C)CC5)cc4)ncc3[C@@]3(C)COC(C)(C)C[C@@H]23)n1)C(F)(F)F [Example 756, (4bR,8aR)-4b,7,7-trimethyl-N-(4-(4-methylpiperazin-1-yl)phenyl)-9-(6-((S)-2,2,2-trifluoro-1-(methylamino)ethyl)pyridin-2-yl)-4b,5,7,8,8a,9-hexahydropyrano[3′,4′:4,5]pyrrolo[2,3-d]pyrimidin-2-amine] yielded an IC50 (Wee1 kinase domain; [2]) of less than 0.01 µM and an IC50 [1, 3] of 0.1 to 1 µM.
Compound CNCc1cccc(N2c3nc(NC(=O)[C@@H]4C[C@H]4c4ccccc4)ncc3[C@@]3(C)COC(C)(C)C[C@@H]23)n1 [Example 760, (1R,2R)-2-phenyl-N-((4bR,8aR)-4b,7,7-trimethyl-9-(6-((methylamino)methyl)pyridin-2-yl)-4b,5,7,8,8a,9-hexahydropyrano[3′,4′:4,5]pyrrolo[2,3-d]pyrimidin-2-yl)cyclopropane-1-carboxamide] has an IC50 (Wee1 kinase domain; [2]) of less than 0.01 µM and an IC50 [1, 3] of 0.1 to 1 µM.
Compound CC1(C)C[C@H]2N(c3cccc(N=S(C)(C)=O)n3)c3nc(NC(=O)[C@@H]4C[C@H]4C4CCOCC4)ncc3[C@@]2(C)CO1 (single isomer, unassigned) [Example 412] has an IC50 (Wee1 kinase domain; [2]) of less than 0.01 µM and an IC50 [1, 3] of no less than 10 µM.
For CN1CCC(n2cc(Nc3ncc4c(n3)N(c3cccc(C(C)(C)O)n3)[C@@H]3CC(C)(C)OC[C@]43C)cn2)CC1 (single isomer, unassigned) [Example 11], the IC50 (Wee1 kinase domain; Wee1 kinase domain, ADP-Glo) was less than 0.01 µM and the IC50 ([1]; A-427, pCDC2 MSD) was 0.1 to 1 µM.
For CN1CC2(C1)CN(c1ccc(Nc3ncc4c(n3)N(c3cccc(N5CCOC5=O)n3)[C@@H]3CC(C)(C)OC[C@]43C)cc1)C2 [Example 707, 3-(6-((4bR,8aR)-4b,7,7-trimethyl-2-((4-(6-methyl-2,6-diazaspiro[3.3]heptan-2-yl)phenyl)amino)-4b,7,8,8a-tetrahydropyrano[3′,4′:4,5]pyrrolo[2,3-d]pyrimidin-9(5H)-yl)pyridin-2-yl)oxazolidin-2-one], the IC50 (Wee1 kinase domain; [2]) was less than 0.01 µM and the IC50 [1, 3] was 0.1 to 1 µM.
